In paper PMC7065771, “Dietary supplementation of recombinant antimicrobial peptide Epinephelus lanceolatus piscidin improves growth performance and immune response in Gallus gallus domesticus” (PLoS ONE, 2020):

Tests used:
Streptococcus agalactiae = format: cell-based; settings: 24 h
Experimental: (§1) All assays were performed in triplicate.

Streptococcus equinus = format: cell-based; settings: 24 h
Experimental: as §1

Escherichia coli = format: cell-based; settings: 24 h
Experimental: as §1

Klebsiella oxytoca = format: cell-based; settings: 24 h
Experimental: as §1

[1] = test system: Staphylococcus aureus subsp; format: cell-based; settings: 24 h
Experimental: as §1

Vibrio parahaemolyticus = settings: synthetic peptide, microbroth dilution series, Gram -
MRSA = format: cell-based, Methicillin-resistant Staphylococcus aureus; settings: 24 h
Experimental: as §1

[2] = test system: Riemerella anatipestifer (CFC363); test: Inhibition zone (disk diffusion) assay; format: cell-based; settings: disk paper on culture plate 16 h at 37°C, rEP: shake-flask supernatant 120 h after induction, maximum carrying capacity, ampicillin 2 mg/ml, 10 μl, read-out: Inhibition zone diameter
Experimental: as §1
(§2) The antimicrobial activity of rEP from flask cultures was evaluated by determining its ability to prevent growth of Gram-positive and Gram-negative bacteria with a disk diffusion assay. […] The most susceptible pathogens were R. anatipestifer (CFC27) and R. anatipestifer (CFC437) (Table 3a). Next, we investigated the thermostability of flask-fermented rEP with regard to its toxicity toward S. aureus (BCRC 10780), E. coli (BCRC 10675) and P. aeruginosa (ATCC 19660). Empty vector with no insert in P. pastoris was used as a control. Thermostability was measured by disk diffusion assay after cultures were incubated for 5 min at 40, 60, 80, or 100°C (Table 3b).

[3] = test system: Riemerella anatipestifer (RA9); test: Inhibition zone (disk diffusion) assay; format: cell-based; settings: disk paper on culture plate 16 h at 37°C, rEP: shake-flask supernatant 120 h after induction, maximum carrying capacity, ampicillin 2 mg/ml, 10 μl, read-out: Inhibition zone diameter
Experimental: as §1, §2

[4] = test system: Riemerella anatipestifer (CFC27); test: Inhibition zone (disk diffusion) assay; format: cell-based; settings: Riemerella anatipestifer; disk paper 16 h at 37°C; ampicillin 2 mg/ml, 10 μl; read-out: Inhibition zone diameter
Experimental: as §1, §2

[5] = test system: Riemerella anatipestifer (CFC437); test: Inhibition zone (disk diffusion) assay; format: cell-based; settings: Riemerella anatipestifer; disk paper 16 h at 37°C; ampicillin 2 mg/ml, 10 μl; read-out: Inhibition zone diameter
Experimental: as §1, §2

[6] = test system: Riemerella anatipestifer (RA3); test: Inhibition zone (disk diffusion) assay; format: cell-based; settings: Riemerella anatipestifer; disk paper 16 h at 37°C; ampicillin 2 mg/ml, 10 μl; read-out: Inhibition zone diameter
Experimental: as §1, §2

[7] = test system: Riemerella anatipestifer (RA16); test: Inhibition zone (disk diffusion) assay; format: cell-based; settings: disk paper on culture plate 16 h at 37°C, rEP: shake-flask supernatant 120 h after induction, maximum carrying capacity, ampicillin 2 mg/ml, 10 μl, read-out: Inhibition zone diameter
Experimental: as §1, §2

[8] = test system: Escherichia coli (BCRC 10675); test: Inhibition zone (disk diffusion) assay; format: cell-based; settings: Escherichia coli, BCRC10675; disk paper on culture plate 16 h at 37°C; rEP: shake-flask supernatant 120 h after induction, maximum carrying capacity; ampicillin 2 mg/ml, 10 μl; read-out: Inhibition zone diameter
Experimental: as §1, §2

[9] = test system: Pseudomonas aeruginosa (ATCC 19660); test: Inhibition zone (disk diffusion) assay; format: cell-based; settings: Pseudomonas aeruginosa, ATCC19660; disk paper on culture plate 16 h at 37°C; rEP: shake-flask supernatant 120 h after induction, maximum carrying capacity; ampicillin 2 mg/ml, 10 μl; read-out: Inhibition zone diameter
Experimental: as §1, §2

[10] = test system: Staphylococcus aureus (BCRC 10780); test: Inhibition zone (disk diffusion) assay; format: cell-based; settings: Staphylococcus aureus, BCRC10780; disk paper on culture plate 16 h at 37°C; rEP: shake-flask supernatant 120 h after induction, maximum carrying capacity; ampicillin 2 mg/ml, 10 μl; read-out: Inhibition zone diameter
Experimental: as §1, §2

Pseudomonas aeruginosa = format: cell-based; settings: 24 h
Experimental: as §1

For “Ac-CFFRHIKSFWRGAKAIFRGARQGWRE-NH2 [G6497-t1]”, the MIC (Streptococcus agalactiae) was 60 µg/mL, the MIC (Streptococcus equinus) was 15 µg/mL and the MIC (Escherichia coli) was 30 µg/mL. The MIC (Klebsiella oxytoca) was 30 µg/mL, the MIC [1] was 60 µg/mL and the MIC (Vibrio parahaemolyticus) was 60 µg/mL. For the same compound, the MIC (MRSA) was 60 µg/mL.
`CC1(C)S[C@@H]2[C@H](NC(=O)[C@H](N)c3ccccc3)C(=O)N2[C@H]1C(=O)O` [Ampicillin, reference compound] gave a zone of inhibition at 2000 µg/mL [2] of 32 ± 2.3 mm, a zone of inhibition at 2000 µg/mL [3] of 31 ± 0.8 mm and a zone of inhibition at 2000 µg/mL [4] of 43 ± 1.1 mm. For the same compound, the zone of inhibition at 2000 µg/mL [5] was 15 ± 4.5 mm, the zone of inhibition at 2000 µg/mL [6] was 12 ± 2.5 mm and the zone of inhibition at 2000 µg/mL [7] was 30 ± 1.2 mm. The zone of inhibition at 2000 µg/mL [8] was 13.6 ± 0.5 mm, the zone of inhibition at 2000 µg/mL [9] was 11.6 ± 0.5 mm and the zone of inhibition at 2000 µg/mL [10] was 14.6 ± 0.5 mm.
“Ac-GFIFHIIKGLFHAGRMIHGLVNRRRHRHGMEE-NH2 [G6498-t1]” was tested, and the MIC (Streptococcus agalactiae) was 90 µg/mL, the MIC (Streptococcus equinus) was 11.2 µg/mL and the MIC (Escherichia coli) was 22.5 µg/mL. The MIC (Pseudomonas aeruginosa) was 45 µg/mL, the MIC (Klebsiella oxytoca) was 45 µg/mL and the MIC [1] was 90 µg/mL. The MIC (Vibrio parahaemolyticus) was 5.6 µg/mL and the MIC (MRSA) was 5.6 µg/mL.
In the case of “Ac-CIMKHLRNLWNGAKAIYNGAKAGWTEFK-NH2 [G6496-t1]”, the MIC (Streptococcus agalactiae) is reported as 60 µg/mL, the MIC (Streptococcus equinus) is reported as 30 µg/mL and the MIC (Escherichia coli) is reported as 60 µg/mL. For the same compound, the MIC (Klebsiella oxytoca) was 60 µg/mL and the MIC [1] was 60 µg/mL.
